Source: the supplement of paper PMC10627819

Columns and labels:
Assay in all cases: fitness (endpoint OD595 vs no drug) (fraction); higher = more growth
B. subtilis 168 = tested on: B. subtilis 168
Summary of the method: (§1)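 Fitness expresses the optical density reached at the stationary-phase transition as a fraction of the robust mean of no-drug control wells. It is capped at 1. Measurements were OD595 every 30 min for 14 h at 37 °C after inoculation of 384-well plates at OD595 0.01 (30 µl, or 55 µl for S. pneumoniae), minus the first reading.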

S. aureus Newman = tested on: S. aureus Newman
Summary of the method: as §1

S. pneumoniae D39V = tested on: S. pneumoniae D39V
Summary of the method: as §1
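Also: OD595 on entry to stationary phase over no-drug wells; at most 1.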

CC[C@H]1OC(=O)[C@H](C)[C@@H](O[C@H]2C[C@@](C)(OC)[C@@H](O)[C@H](C)O2)[C@H](C)[C@@H](O[C@@H]2O[C@H](C)C[C@H](N(C)C)[C@H]2O)[C@](C)(O)C[C@@H](C)CN(C)[C@H](C)[C@@H](O)[C@]1(C)O [Azithromycin] + O=C(O)[C@H]1/C(=C/CO)O[C@@H]2CC(=O)N21 [Clavulanic acid]
fitness, B. subtilis 168
Settings | partner 1.5 µg/mL | partner 3 µg/mL | partner 6 µg/mL
first compound 0.25 µg/mL | 0.939 | 0.911 | 0.793
first compound 0.5 µg/mL | 0.805 | 0.788 | 0.727

fitness, one replicate
Settings | partner 0.03125 µg/mL | partner 0.0625 µg/mL | partner 0.125 µg/mL | partner 1.5 µg/mL | partner 3 µg/mL | partner 6 µg/mL
B. subtilis 168, first compound 2 µg/mL | – | – | – | 0.0793 | 0.054 | 0.0121
S. aureus Newman, first compound 0.125 µg/mL | 0.962 | 0.973 | 0.92 | – | – | –
S. aureus Newman, first compound 0.25 µg/mL | 0.902 | 0.998 | 0.893 | – | – | –
S. aureus Newman, first compound 0.5 µg/mL | 0.811 | 0.799 | 0.834 | – | – | –

CC1=C(C(=O)O)N2C(=O)[C@@H](NC(=O)[C@H](N)c3ccccc3)[C@H]2SC1 [Cephalexin] + CO[C@@]12[C@H](COC(N)=O)C3=C(C(=O)C(C)=C(N)C3=O)N1C[C@@H]1N[C@@H]12 [Mitomycin C]
fitness
Settings | first compound 0.25 µg/mL | first compound 0.5 µg/mL | first compound 1 µg/mL | first compound 2 µg/mL | first compound 4 µg/mL
S. aureus Newman, partner 0.0156 µg/mL | 0.804 | 0.761 | 0.891 | – | –
S. aureus Newman, partner 0.0312 µg/mL | 0.732 | 0.724 | 0.705 | – | –
S. aureus Newman, partner 0.0625 µg/mL | 0.614 | 0.577 | 0.655 | – | –
S. pneumoniae D39V, partner 0.001075 µg/mL | – | – | 0.662 | 0.188 | 0.0487
S. pneumoniae D39V, partner 0.00215 µg/mL | – | – | 0.639 | 0.146 | 0.0215
S. pneumoniae D39V, partner 0.0043 µg/mL | – | – | 0.604 | 0.173 | 0.05

fitness, S. pneumoniae D39V, one replicate
Settings | first compound 0.125 µg/mL | first compound 0.25 µg/mL | first compound 0.5 µg/mL
partner 0.002 µg/mL | 0.806 | 0.757 | 0.732
partner 0.004 µg/mL | 0.761 | 0.723 | 0.686
partner 0.008 µg/mL | 0.607 | 0.615 | 0.608

O=C(O)[C@H]1/C(=C/CO)O[C@@H]2CC(=O)N21 [Clavulanic acid] + CC1=C(C(=O)O)N2C(=O)[C@@H](NC(=O)[C@H](N)c3ccccc3)[C@H]2SC1 [Cephalexin]
Settings | fitness
B. subtilis 168, first compound 1.5 µg/mL, partner 0.125 µg/mL | 0.904
B. subtilis 168, first compound 1.5 µg/mL, partner 0.25 µg/mL | 0.927
B. subtilis 168, first compound 1.5 µg/mL, partner 0.5 µg/mL | 0.889
B. subtilis 168, first compound 3 µg/mL, partner 0.125 µg/mL | 0.878
B. subtilis 168, first compound 3 µg/mL, partner 0.25 µg/mL | 0.818
B. subtilis 168, first compound 3 µg/mL, partner 0.5 µg/mL | 0.793
B. subtilis 168, first compound 6 µg/mL, partner 0.125 µg/mL | 0.772
B. subtilis 168, first compound 6 µg/mL, partner 0.25 µg/mL | 0.76
B. subtilis 168, first compound 6 µg/mL, partner 0.5 µg/mL | 0.723
S. pneumoniae D39V, first compound 0.5 µg/mL, partner 2 µg/mL | 0.0193
S. pneumoniae D39V, first compound 0.5 µg/mL, partner 4 µg/mL | 0.0187
S. pneumoniae D39V, first compound 1 µg/mL, partner 2 µg/mL | 0.171
S. pneumoniae D39V, first compound 1 µg/mL, partner 4 µg/mL | 0.203
S. pneumoniae D39V, first compound 2 µg/mL, partner 1 µg/mL | 0.104
S. pneumoniae D39V, first compound 2 µg/mL, partner 2 µg/mL | 0.0309
S. pneumoniae D39V, first compound 2 µg/mL, partner 4 µg/mL | 0.045

one replicate
Settings | fitness
B. subtilis 168, first compound 1.5 µg/mL, partner 1 µg/mL | 0.929
B. subtilis 168, first compound 3 µg/mL, partner 1 µg/mL | 0.848
B. subtilis 168, first compound 6 µg/mL, partner 1 µg/mL | 0.867
S. aureus Newman, first compound 0.03125 µg/mL, partner 0.5 µg/mL | ≥ 1
S. aureus Newman, first compound 0.03125 µg/mL, partner 1 µg/mL | ≥ 1
S. aureus Newman, first compound 0.03125 µg/mL, partner 2 µg/mL | ≥ 1
S. aureus Newman, first compound 0.0625 µg/mL, partner 0.5 µg/mL | 0.958
S. aureus Newman, first compound 0.0625 µg/mL, partner 1 µg/mL | 0.986
S. aureus Newman, first compound 0.0625 µg/mL, partner 2 µg/mL | ≥ 1
S. aureus Newman, first compound 0.125 µg/mL, partner 0.5 µg/mL | 0.897
S. aureus Newman, first compound 0.125 µg/mL, partner 1 µg/mL | 0.913
S. aureus Newman, first compound 0.125 µg/mL, partner 2 µg/mL | 0.919
S. pneumoniae D39V, first compound 0.5 µg/mL, partner 0.125 µg/mL | 0.945
S. pneumoniae D39V, first compound 0.5 µg/mL, partner 0.25 µg/mL | 0.957
S. pneumoniae D39V, first compound 0.5 µg/mL, partner 0.5 µg/mL | 0.941
S. pneumoniae D39V, first compound 1 µg/mL, partner 0.125 µg/mL | 0.881
S. pneumoniae D39V, first compound 1 µg/mL, partner 0.25 µg/mL | 0.903
S. pneumoniae D39V, first compound 1 µg/mL, partner 0.5 µg/mL | 0.944
S. pneumoniae D39V, first compound 2 µg/mL, partner 0.125 µg/mL | 0.772
S. pneumoniae D39V, first compound 2 µg/mL, partner 0.25 µg/mL | 0.789
S. pneumoniae D39V, first compound 2 µg/mL, partner 0.5 µg/mL | 0.765

O=C(O)[C@H]1/C(=C/CO)O[C@@H]2CC(=O)N21 [Clavulanic acid] + CC1=C\[C@@H](O)CC(=O)Cc2nc(co2)C(=O)N2CCC=C2C(=O)O[C@H](C(C)C)[C@H](C)/C=C/C(=O)NC\C=C\1 [Virginiamycin M1]
fitness
Settings | first compound 0.5 µg/mL | first compound 1 µg/mL | first compound 1.5 µg/mL | first compound 2 µg/mL | first compound 3 µg/mL | first compound 6 µg/mL
B. subtilis 168, partner 0.0625 µg/mL | – | – | 0.935 | – | 0.877 | 0.809
B. subtilis 168, partner 0.125 µg/mL | – | – | 0.917 | – | 0.895 | 0.7
B. subtilis 168, partner 0.25 µg/mL | – | – | 0.927 | – | 0.841 | 0.822
S. pneumoniae D39V, partner 0.5 µg/mL | 0.991 | 0.935 | – | 0.918 | – | –
S. pneumoniae D39V, partner 1 µg/mL | ≥ 1 | 0.958 | – | 0.867 | – | –
S. pneumoniae D39V, partner 2 µg/mL | 0.957 | 0.904 | – | 0.796 | – | –

fitness, one replicate
Settings | first compound 0.03125 µg/mL | first compound 0.0625 µg/mL | first compound 0.125 µg/mL | first compound 0.5 µg/mL | first compound 1 µg/mL | first compound 2 µg/mL
S. aureus Newman, partner 0.0625 µg/mL | 0.925 | 0.984 | 0.908 | – | – | –
S. aureus Newman, partner 0.125 µg/mL | 0.917 | 0.977 | 0.949 | – | – | –
S. aureus Newman, partner 0.25 µg/mL | 0.971 | ≥ 1 | 0.975 | – | – | –
S. pneumoniae D39V, partner 0.15 µg/mL | – | – | – | ≥ 1 | 0.929 | 0.868
S. pneumoniae D39V, partner 0.3 µg/mL | – | – | – | 0.875 | 0.87 | 0.802
